Drawing on ChEMBL document CHEMBL1201862, “PubChem BioAssay data set” (2004), this text covers IC50, EC50 and AC50 for 6 compounds.

Experiment [1] addresses T1, Carboxy-terminal domain RNA polymerase II polypeptide A small phosphatase 1 (Homo sapiens, UniProt Q9GZU7).
T1 sequence (Q9GZU7 whole entry): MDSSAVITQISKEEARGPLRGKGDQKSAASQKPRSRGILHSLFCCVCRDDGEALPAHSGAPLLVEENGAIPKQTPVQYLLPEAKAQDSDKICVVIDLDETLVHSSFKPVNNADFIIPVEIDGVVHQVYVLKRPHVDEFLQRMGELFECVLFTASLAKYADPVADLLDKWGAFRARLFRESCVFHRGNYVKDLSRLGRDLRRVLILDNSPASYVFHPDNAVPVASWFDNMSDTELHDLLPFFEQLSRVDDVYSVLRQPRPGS
Description: CTDSP1 inhibitors, concentration-response, biochemical, absorbance readout, ultra-high-throughput screen actives (AID 540297). Type of experiment: functional.

The target of experiment [2] is T2, Tyrosine-protein phosphatase non-receptor type 11 (Homo sapiens, UniProt Q06124).
T2 sequence (Q06124 whole entry): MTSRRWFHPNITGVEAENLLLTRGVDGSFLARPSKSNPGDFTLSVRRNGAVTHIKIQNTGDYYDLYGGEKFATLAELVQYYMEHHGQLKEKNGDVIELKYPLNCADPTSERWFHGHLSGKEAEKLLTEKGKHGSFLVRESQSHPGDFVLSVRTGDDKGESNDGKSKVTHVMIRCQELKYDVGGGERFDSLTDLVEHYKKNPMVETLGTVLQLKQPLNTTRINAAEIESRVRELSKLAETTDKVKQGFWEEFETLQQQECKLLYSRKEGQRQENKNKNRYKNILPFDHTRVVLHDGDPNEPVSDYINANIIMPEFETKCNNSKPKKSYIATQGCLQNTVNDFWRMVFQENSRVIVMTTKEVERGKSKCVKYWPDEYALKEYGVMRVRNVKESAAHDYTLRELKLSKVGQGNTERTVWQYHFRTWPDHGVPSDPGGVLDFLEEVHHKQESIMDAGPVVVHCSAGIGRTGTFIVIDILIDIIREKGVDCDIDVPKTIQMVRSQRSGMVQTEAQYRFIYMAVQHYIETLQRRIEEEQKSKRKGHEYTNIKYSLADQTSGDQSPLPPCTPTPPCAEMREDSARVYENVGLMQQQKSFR
The experiment in a line: PTPN11 enzyme inhibitors – biochemical, selectivity assay for STEP inhibitor project, dose response (AID 602367). Type of experiment: functional. The conditions noted are these: read-out: IC50_Mean.

The target of experiment [3] is T3, Tyrosine-protein phosphatase non-receptor type 5 (Homo sapiens, UniProt P54829).
T3 sequence (P54829 whole entry): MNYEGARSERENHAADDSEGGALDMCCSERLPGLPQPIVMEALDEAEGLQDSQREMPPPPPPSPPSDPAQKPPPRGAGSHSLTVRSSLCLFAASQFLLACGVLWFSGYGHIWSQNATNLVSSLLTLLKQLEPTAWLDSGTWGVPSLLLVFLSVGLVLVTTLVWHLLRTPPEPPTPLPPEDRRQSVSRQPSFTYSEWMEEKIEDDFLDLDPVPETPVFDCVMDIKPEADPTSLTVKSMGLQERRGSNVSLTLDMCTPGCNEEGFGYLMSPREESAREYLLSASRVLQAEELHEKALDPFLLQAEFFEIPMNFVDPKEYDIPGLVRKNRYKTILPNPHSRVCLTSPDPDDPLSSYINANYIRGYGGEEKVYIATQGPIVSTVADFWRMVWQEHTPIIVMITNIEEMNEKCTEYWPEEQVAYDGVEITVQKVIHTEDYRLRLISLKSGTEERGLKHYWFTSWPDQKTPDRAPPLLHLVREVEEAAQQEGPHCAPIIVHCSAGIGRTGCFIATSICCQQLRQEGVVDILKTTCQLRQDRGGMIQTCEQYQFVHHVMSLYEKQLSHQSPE
The experiment in a line: PTPN5 enzyme inhibition – biochemical, fluorescence intensity, uHTS hits, confirmation (AID 602372). Format: functional. The conditions noted are these: read-out: IC50_Mean.

Experiment [4] concerns the target Dual specificity protein phosphatase 3 (Homo sapiens, UniProt P51452). Description: VHR phosphatase inhibition, dose response, selectivity assay for STEP inhibitor project, biochemical (AID 602374). Type of experiment: functional. The conditions noted are these: read-out: IC50_Mean.
In experiment [5] the target is T4, Low molecular weight phosphotyrosine protein phosphatase (Homo sapiens, UniProt P24666).
T4 sequence (P24666 whole entry): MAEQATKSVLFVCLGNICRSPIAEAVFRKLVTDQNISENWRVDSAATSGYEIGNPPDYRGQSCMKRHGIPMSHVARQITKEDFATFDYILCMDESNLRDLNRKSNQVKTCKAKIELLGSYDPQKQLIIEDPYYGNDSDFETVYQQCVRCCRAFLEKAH
Type of experiment: functional. The settings on record: read-out: IC50_Mean.

For experiment [6], the target named is T4, Low molecular weight phosphotyrosine protein phosphatase. Format: functional. The settings on record: read-out: IC50_Mean. This is another data set of the same source.
Experiment [7] deals with BJ. Description: BJ-TERT fibroblast viability loss – cell-based, RAS-independent, luminescence, dose response (AID 1933). Format: functional. The settings on record: Homo sapiens.
Experiment [8] can be described thus: Luminescence Cell-Based Dose Response HTS to Identify Inhibitors of 5'UTR Stem-Loop Driven Prion Protein mRNA Translation in H4 Neuroglioblastoma Cells. [Related pubchem assays: 1827 (Project Summary), 1813 (Primary HTS)]. Type of experiment: functional.
Experiment [9] in a line: alpha-synuclein stem-loop luciferase translation blockers – H4 neuroglioma cells, luminescence, confirmation (AID 1988). Format: functional, cell-based.
In experiment [10] the test system is BJ. The experiment in a line: cells. The conditions noted are these: Homo sapiens. Format: functional, cell-based.
Experiment [11] has as its system BJ. Description: BJ-TERT-LT-ST fibroblast viability loss – cell-based, RAS-independent, luminescence, dose response (AID 1935).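 Also: BJ fibroblasts immortalized with TERT plus LT and ST oncogenes.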 Type of experiment: functional. The settings on record: Homo sapiens.
A short description of experiment [12]: DRD fibroblast viability loss – cell-based, non-viral oncogenic, luminescence, dose response (AID 1934). The conditions noted are these: Homo sapiens. Type of experiment: functional.
In another experiment the test system is HEK293. The experiment in a line: EBV LMP1 TES2 canonical NF-kB signalling blockers – cell-based, HEK293, luciferase, cherry-pick, dose response (AID 588343). Format: functional. The settings on record: Homo sapiens.
Experiment [13] is described as follows: cells. Format: functional, cell-based.
The target in experiment [14] is T5, Nuclear receptor subfamily 0 group B member 1 (Homo sapiens, UniProt P51843).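 Also: HEK293T cells transfected with SF-1 and DAX-1 plus StAR promoter luciferase reporter.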
T5 sequence (P51843 whole entry): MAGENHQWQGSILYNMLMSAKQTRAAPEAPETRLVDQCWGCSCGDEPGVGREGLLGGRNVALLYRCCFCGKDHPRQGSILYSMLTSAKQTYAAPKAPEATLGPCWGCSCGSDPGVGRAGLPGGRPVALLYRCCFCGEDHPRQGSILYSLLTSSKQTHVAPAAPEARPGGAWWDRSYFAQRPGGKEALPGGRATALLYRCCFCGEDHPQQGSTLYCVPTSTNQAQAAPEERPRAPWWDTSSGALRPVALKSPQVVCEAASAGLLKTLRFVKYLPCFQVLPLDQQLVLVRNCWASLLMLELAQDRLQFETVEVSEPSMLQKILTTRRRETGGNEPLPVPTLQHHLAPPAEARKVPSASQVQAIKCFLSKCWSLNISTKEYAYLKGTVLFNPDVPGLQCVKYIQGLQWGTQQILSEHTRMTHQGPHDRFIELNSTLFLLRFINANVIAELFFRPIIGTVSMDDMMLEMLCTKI
Format: functional, cell-based.

The nature of experiment [15]: A549 cell cytotoxicity, dose response, cytotoxicity control, plate reader, cherry-pick, antagonist series (AID 743412). Format: functional, cell-based.
Experiment [16] is described as follows: toxicity toward HepG2 liver cells – cell-based, plate reader, cherry-pick, antagonist series, cytotoxicity control, dose response (AID 743416). Format: functional.
Experiment [17] is described as follows: blockers of bursicon-stimulated LGR2 cAMP reporter – cell-based, HEK293, CRE-luciferase reporter, cherry pick, set 2, dose response (AID 743343).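 Also: transfected cells were stimulated with diluted bursicon conditioned medium after compound addition.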 Format: functional. (Reporter assays use an easily measured gene product as a stand-in for the process of interest.)
Experiment [18] can be described thus: blockade of melanocortin 4 receptor signaling – cell-based, plate reader, cherry pick, counter-screen for LGR2 antagonist project, dose response (AID 743444).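 Also: transfected HEK 293 cells stimulated with alpha-MSH peptide; potency of inhibitors of the alpha-MSH evoked signal.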 Format: functional.
Experiment [19] is described as follows: viability loss in HEK293 cells – cell-based, plate reader, cherry-picked samples, cytotoxicity control, dose response (AID 743446). Type of experiment: functional.
Experiment [20] is described as follows: cells. Type of experiment: functional, cell-based. The source holds these as a separate data set.
Experiment [21] deals with T6, Trace amine-associated receptor 1 (Homo sapiens, UniProt Q96RJ0).
T6 sequence (Q96RJ0 whole entry): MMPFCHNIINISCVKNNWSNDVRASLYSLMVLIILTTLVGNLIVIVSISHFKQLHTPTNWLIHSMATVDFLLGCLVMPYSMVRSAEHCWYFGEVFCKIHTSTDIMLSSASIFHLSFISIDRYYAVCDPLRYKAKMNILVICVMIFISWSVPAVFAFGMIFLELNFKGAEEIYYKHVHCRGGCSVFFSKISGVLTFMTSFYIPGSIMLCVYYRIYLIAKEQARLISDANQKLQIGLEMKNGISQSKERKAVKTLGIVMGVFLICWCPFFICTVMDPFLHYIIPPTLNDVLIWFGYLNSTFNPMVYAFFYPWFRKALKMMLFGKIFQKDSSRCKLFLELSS
Description: Fluorescence-based cell-based high throughput dose response assay to identify agonists of the human trace amine associated receptor 1 (TAAR1). Format: functional.

The target of experiment [22] is T6, Trace amine-associated receptor 1. The experiment in a line: Counterscreen for agonists of the human trace amine associated receptor 1 (hTAAR1): Fluorescence-based cell-based high throughput dose response assay to identify hTAAR1 agonist that also desensitize TAAR1 receptor response. Format: functional. (The purpose of a counterscreen is to sort out artefacts and off-target activity.)

Experiment [23] in a line: cells. Type of experiment: functional, cell-based. This is another data set of the same source.
The target of a further experiment is Mu-type opioid receptor (Homo sapiens, UniProt P35372). Format: functional, cell-based.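 Also: U2OS cells with beta-arrestin recruitment to OPRM1 by beta-gal complementation.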
Chain of Mu-type opioid receptor (P35372 whole entry): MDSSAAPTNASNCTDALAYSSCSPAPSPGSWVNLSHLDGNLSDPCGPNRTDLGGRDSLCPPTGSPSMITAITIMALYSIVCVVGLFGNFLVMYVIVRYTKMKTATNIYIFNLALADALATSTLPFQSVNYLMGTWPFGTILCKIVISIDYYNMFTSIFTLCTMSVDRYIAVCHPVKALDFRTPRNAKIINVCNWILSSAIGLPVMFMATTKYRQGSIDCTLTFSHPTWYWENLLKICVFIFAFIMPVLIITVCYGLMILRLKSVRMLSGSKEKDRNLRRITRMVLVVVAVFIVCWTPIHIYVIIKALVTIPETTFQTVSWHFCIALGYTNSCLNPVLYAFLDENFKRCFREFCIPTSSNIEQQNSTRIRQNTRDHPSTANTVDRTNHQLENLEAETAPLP
For experiment [24], the target named is 5-hydroxytryptamine receptor 2A (Mus musculus, UniProt P35363). Format: functional, cell-based.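 Also: CHO-K1 cells with tagged receptor and beta-arrestin; agonist potency measured as compound-induced activation of the receptor.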
Chain of 5-hydroxytryptamine receptor 2A (P35363 whole entry): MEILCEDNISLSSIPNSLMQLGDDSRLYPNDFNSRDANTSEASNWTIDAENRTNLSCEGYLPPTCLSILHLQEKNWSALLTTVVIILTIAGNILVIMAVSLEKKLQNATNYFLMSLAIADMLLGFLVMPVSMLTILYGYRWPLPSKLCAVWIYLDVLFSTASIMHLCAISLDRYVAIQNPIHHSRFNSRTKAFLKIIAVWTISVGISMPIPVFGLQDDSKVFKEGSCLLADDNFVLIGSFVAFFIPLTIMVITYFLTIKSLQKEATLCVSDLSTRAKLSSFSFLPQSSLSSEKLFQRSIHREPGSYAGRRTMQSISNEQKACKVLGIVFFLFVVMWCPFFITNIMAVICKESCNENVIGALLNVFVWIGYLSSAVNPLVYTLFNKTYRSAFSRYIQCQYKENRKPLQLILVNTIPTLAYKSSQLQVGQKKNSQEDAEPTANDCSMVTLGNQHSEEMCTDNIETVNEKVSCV
The nature of experiment [25]: Luminescence Cell-Based Dose Retest to Confirm Inhibitors of Cancer Stem Cells. [Related pubchem assays (depositor defined):AID2717, AID2721]. Format: functional. The settings on record: Homo sapiens.
Experiment [26] is described as follows: potency of ADAM10 substrate cleavage blockers – biochemical, QFRET, dose response (AID 743254).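 Also: ADAM10 enzyme with the DM2 quenched FRET peptide as substrate; EDANS fluorescence gain as the protease cuts the substrate; inhibitor potency against ADAM10 proteolytic activity.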
The target in experiment [27] is Disintegrin and metalloproteinase domain-containing protein 17 (Homo sapiens, UniProt P78536). The experiment in a line: inhibition of ADAM17 substrate cleavage – biochemical, quenched FRET substrate, counter-screen for ADAM10 exosite inhibitor project, dose response (AID 743253).
Chain of Disintegrin and metalloproteinase domain-containing protein 17 (P78536 whole entry, the tested form may be a part): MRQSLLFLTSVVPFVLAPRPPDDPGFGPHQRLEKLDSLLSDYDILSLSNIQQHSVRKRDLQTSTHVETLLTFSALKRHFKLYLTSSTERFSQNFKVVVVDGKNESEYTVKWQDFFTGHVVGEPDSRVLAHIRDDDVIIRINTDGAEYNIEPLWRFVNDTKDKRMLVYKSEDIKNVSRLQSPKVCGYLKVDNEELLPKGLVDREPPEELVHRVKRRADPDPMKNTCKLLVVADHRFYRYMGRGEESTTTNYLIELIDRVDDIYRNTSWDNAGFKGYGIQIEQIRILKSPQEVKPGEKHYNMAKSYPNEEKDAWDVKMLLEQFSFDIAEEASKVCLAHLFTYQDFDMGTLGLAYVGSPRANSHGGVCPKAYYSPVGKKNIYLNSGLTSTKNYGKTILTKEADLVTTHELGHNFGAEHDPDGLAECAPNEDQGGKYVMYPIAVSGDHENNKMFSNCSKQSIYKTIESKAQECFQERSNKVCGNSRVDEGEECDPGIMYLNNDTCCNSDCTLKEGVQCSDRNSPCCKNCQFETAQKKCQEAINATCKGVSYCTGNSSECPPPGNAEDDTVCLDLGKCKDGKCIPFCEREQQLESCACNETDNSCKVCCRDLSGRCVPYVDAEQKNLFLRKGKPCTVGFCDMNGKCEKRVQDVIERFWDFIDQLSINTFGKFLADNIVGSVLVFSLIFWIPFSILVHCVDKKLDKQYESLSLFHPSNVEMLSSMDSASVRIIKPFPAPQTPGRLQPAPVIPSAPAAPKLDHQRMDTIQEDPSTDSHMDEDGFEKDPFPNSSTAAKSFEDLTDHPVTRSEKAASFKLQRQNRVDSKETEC

Each structure is given as a SMILES string. The source made the active and inactive calls.

Chain of Dual specificity protein phosphatase 3 (P51452 whole entry): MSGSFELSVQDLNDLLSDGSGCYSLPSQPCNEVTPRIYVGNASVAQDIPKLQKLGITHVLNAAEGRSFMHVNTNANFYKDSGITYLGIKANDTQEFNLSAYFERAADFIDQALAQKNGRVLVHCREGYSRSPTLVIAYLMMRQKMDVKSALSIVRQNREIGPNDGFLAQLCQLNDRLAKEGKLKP

For `O=C(COc1ccc(/C=N/NC(=O)c2ccccc2O)cc1)Nc1ccccc1`, the IC50 in [1] is 5.32 µM (active); in experiment [2] it was 4.22 µM (active); in experiment [3], 11.7 µM (active); in experiment [4] it was 3.88 µM (active); in experiment [5], 16.4 µM (active); in experiment [6], 39.9 µM (inactive).
In general, EC50 refers to the midpoint of the concentration-response curve. Usually AC50 stands for the concentration at which the activity in the assay is half-maximal. On to `COc1ccc(-c2ccc(NC(=O)c3ccco3)cc2)nn1`, for which the EC50 in the experiment with BJ [7] is 5.74 µM (active); in [8], 4.34 µM (active); in [9], 5.37 µM (active); in the experiment on BJ [10] it was 10.1 µM (active); with BJ [11] it was 21.8 µM (active); in experiment [12] it was 7.33 µM (active). The AC50 in the experiment with HEK293 is 1.51 µM (active); in experiment [15], 11.1 µM (active); in experiment [16], 15.2 µM (active); in experiment [17], 3.8 µM (active); in experiment [18], 3.59 µM (active); in [19], 21.9 µM (active). Moreover, the IC50 (in “cells [13]”; in experiment [14]) was > 67.6 µM (inactive) in each case.
As to `CCCCCCCCN1C(=O)[C@@H](CC(=O)NCCc2ccccc2OC)C[C@@]2(C(=O)OC)C1=C[C@H](C(C)(C)C)O[C@@H]2C`, the IC50 in the experiment “cells [20]” was > 29.9 µM (inactive); in [22], 6.93 µM (active). Besides, the EC50 in [21] is 5.23 µM (active); in the experiment “cells [23]”, > 29.9 µM (inactive).
Turning to `O=C(c1ccco1)N1CCN(Cc2ccc(F)cc2)CC1`, the EC50 on Mu-type opioid receptor is 92.5 µM (inactive); in [24], 7.5 µM (active).
As to `Cc1ccc(S(=O)(=O)Nc2ccc(-c3nnc(SCc4ccccc4Cl)o3)cc2)cc1`, the AC50 in experiment [25] is 3.88 µM (active). For the same compound, the IC50 in experiment [26] and in experiment [27] was > 69.5 µM (inactive) throughout.
With `CCc1ccc(CN2CCN(C(=O)c3ccco3)CC2)cc1`, the values for the EC50 (on Mu-type opioid receptor; in [24]) were 92.5 µM (inactive) and 0.219 µM (active), respectively.
